Experimental findings from ChEMBL document CHEMBL3507680, “University of Dundee, Gates Library screen for HepG2 cell viability” are described below.

SMILES strings stand for the structures.

A short description of this data set: Human HepG2 cell viability assay in 384 well format. It counts as toxicity, cell-based. The arrangement: dose 125 nL, time 70.5 hour; cytotoxicity at 70.5 h: concentration not given beside the values. To be noted: HepG2 cells, read-out: Inhibition.
With `CN1CCN(C(=O)c2cc[nH]c(=O)c2)Cc2ccccc21`, the cytotoxicity at 70.5 h came out at 1.93%.

With `Cc1c(C(=O)N2CCC2(C)C)nnn1-c1cccc2cccnc12`, the cytotoxicity at 70.5 h was -3.77%.

In the case of `CCc1c(C)nn2c(O)cc(C3CCN(C(=O)c4ccn(C)n4)C3)nc12` (centres undefined), the cytotoxicity at 70.5 h worked out at 16.4%.

Consider `N#Cc1ccc(C(=O)N2CCOC[C@H](Oc3cnccn3)C2)cc1`, for which the cytotoxicity at 70.5 h is -0.682%.

As to `CCOCc1ccc(NC(=O)N2CCCC2c2nncn2C)cc1` (centres undefined), the cytotoxicity at 70.5 h was -6.88%.

As to `COc1ccc2c(c1)CCCN2C(=O)c1cccc(N(C)C)c1`, the cytotoxicity at 70.5 h worked out at 3.26%.

For the molecule `CC(C)c1nc2c(n1C)CCN(Cc1nc(-c3ccco3)no1)C2`, the cytotoxicity at 70.5 h is -7.27%.

With `CC(=O)N1CCC(N[C@@H]2CO[C@H](CNC(=O)C3CCCC3)[C@H]2O)CC1`, the cytotoxicity at 70.5 h was -5.38%.

As for `CCCC(=O)Nc1cnn(CC(=O)Nc2ccc(SC)cc2)c1`, the cytotoxicity at 70.5 h is -5.62%.

In the case of `COc1ccccc1N1CCN(Cc2cnc3c(c2)c(C)nn3C)CC1`, the cytotoxicity at 70.5 h was -11.4%.

For `CC1=N[C@@]2(CC[C@@H]3CN(CC(C)C)C[C@@H]32)C(=O)N1`, the cytotoxicity at 70.5 h was -4.43%.

In the case of `CNc1nc(CNC(=O)Nc2cccc(COCCOC(C)C)c2)cs1`, the cytotoxicity at 70.5 h stood at 2.29%.

For `Cc1ccoc1C(=O)N1Cc2c(Cn3ccnc3)nn(C)c2C1`, the cytotoxicity at 70.5 h is 20.4%.

As for `COc1cc(C2(C(=O)NCC(=O)NC3CC3)CC2)ccc1C`, the cytotoxicity at 70.5 h was -5.44%.

As for `CN(Cc1nc(C2CC2)no1)C(=O)C1COc2ccccc2C1` (centres undefined), the cytotoxicity at 70.5 h was -0.624%.

Consider `Cc1csc(CN(CC2CCCO2)C(=O)c2cccnc2C)n1` (centres undefined), for which the cytotoxicity at 70.5 h was -6.56%.

In the case of `Cn1cnnc1CCNC(=O)c1cnn(Cc2ccccc2)c1`, the cytotoxicity at 70.5 h was -14.9%.

`CC(=O)N1CCN(C(=O)c2cccc(OCc3cscn3)c2)CC1`: the cytotoxicity at 70.5 h was determined as 0.43%.

As for `Cc1ccc(CSCCn2nc3ccccn3c2=O)cc1`, the cytotoxicity at 70.5 h is -1.35%.

Turning to `O=C(COCC1CC1)N1CCN(C(=O)Cc2ccccn2)CC1`, the cytotoxicity at 70.5 h was -1.46%.

Regarding `Cc1nc(C2CCCN(C(=O)c3sccc3C3CC3)C2)no1` (centres undefined), the cytotoxicity at 70.5 h is -8.62%.

For `CN(C)CCn1c([C@H]2CCCO2)cc2cccnc21`, the cytotoxicity at 70.5 h was -2.03%.

For the molecule `CCN1CC2(CC1=O)CN(C(=O)N(C)C)CCN(S(C)(=O)=O)C2` (centres undefined), the cytotoxicity at 70.5 h is -10.5%.

For the molecule `CC(C)Sc1ncccc1C(=O)NCc1ccc(O)cc1`, the cytotoxicity at 70.5 h was -2.85%.

Consider `CCn1c(CN2CCCC2)nnc1C1CCN(Cc2ccccn2)CC1`, for which the cytotoxicity at 70.5 h was 18.4%.

Consider `CCc1nn(C)c(Cl)c1CN1CCCC(c2cc(O)nc(C)n2)C1` (centres undefined), for which the cytotoxicity at 70.5 h is -0.921%.

For the molecule `CC(=O)N1N=C(c2ccccc2)OC1C(=O)NCC(=O)OC(C)(C)C` (centres undefined), the cytotoxicity at 70.5 h is -2.16%.

As for `O=C(NCCn1ccnc1)N1CCN(Cc2ccsc2)CC1`, the cytotoxicity at 70.5 h was 9.21%.

As to `Cc1oncc1C(=O)N1CCC(O)(CN2CCOCC2)C(C)(C)C1` (centres undefined), the cytotoxicity at 70.5 h was -2.15%.

For the molecule `C=C(C)CN1CCC(Nc2nc(C)ns2)CC1`, the cytotoxicity at 70.5 h is -0.501%.

As to `COc1cccc(N2Cc3nc(=O)n(Cc4cccc(F)c4)n3C2=O)c1`, the cytotoxicity at 70.5 h is -20.7%.

Consider `Cc1cc2c(=O)n3c(nc2s1)CCN(C(=O)c1scnc1C)CC3`, for which the cytotoxicity at 70.5 h is -12.5%.

As for `Cc1nnc(N2C[C@H](OCC3CCCC3)[C@H]3OCCC[C@H]32)s1`, the cytotoxicity at 70.5 h is -5.71%.

Take `O=C(NC1CC1)N1CCC2(CC1)C(=O)NCCN2Cc1ccccc1`: the cytotoxicity at 70.5 h is -13.6%.

On to `Cc1ccc2c(n1)N(C)CCN(C(=O)NC1CC1)C2`, for which the cytotoxicity at 70.5 h turned out to be 25.2%.

With `c1ccc(-c2nnn3c2COC(CNCc2ccccn2)C3)cc1` (centres undefined), the cytotoxicity at 70.5 h was -5.4%.

On to `CN(Cc1nc(C(F)(F)F)cs1)C(=O)CCc1ccccn1`, for which the cytotoxicity at 70.5 h is -1.82%.

For the molecule `CCC(=O)N1CCc2[nH]cnc2C12CCN(C(=O)CCS(C)(=O)=O)CC2`, the cytotoxicity at 70.5 h is -1.4%.

As for `O=C(CN1CCOC(Cn2cccn2)C1)Nc1nccs1` (centres undefined), the cytotoxicity at 70.5 h was -16.1%.

On to `CNC(=O)c1cccc(CCNc2ncc(Br)cn2)c1`, for which the cytotoxicity at 70.5 h was found to be 7.32%.

In the case of `CC(C)(C)n1cc(C(=O)O)c(-c2ccc(F)cc2F)n1`, the cytotoxicity at 70.5 h is -18.2%.

Regarding `COc1ccc(OCc2noc(CN(C)C3CCS(=O)(=O)C3)n2)cc1` (centres undefined), the cytotoxicity at 70.5 h is -5.76%.

For the molecule `Cc1cccc(CN2CCC3(CCCN(C(=O)N(C)C)C3)C2=O)n1` (centres undefined), the cytotoxicity at 70.5 h was -3.06%.

For `CC1(C(=O)N2CCOCC2)CN(Cc2ccccc2F)CCO1` (centres undefined), the cytotoxicity at 70.5 h was -11.3%.

Take `CC(C)CN1C(=O)CC[C@H]2CN(C(=O)c3ncc[nH]3)CC[C@H]21`: the cytotoxicity at 70.5 h is -0.867%.

Consider `COc1ncccc1CNC(=O)c1cc(F)cc(Br)c1`, for which the cytotoxicity at 70.5 h is -2.19%.

Regarding `Cc1ncsc1C(=O)N(C)Cc1ccccc1`, the cytotoxicity at 70.5 h is -4.43%.

Regarding `Cc1nc2ncnn2c(C)c1CCC(=O)Nc1cccn(C)c1=O`, the cytotoxicity at 70.5 h is -15.3%.

On to `COc1cccc(C(=O)NS(=O)(=O)c2cccc(C#N)c2)c1`, for which the cytotoxicity at 70.5 h was -6.99%.

Consider `O=C1CCCN1Cc1nnn2c1CN(c1ncccn1)CCC2`, for which the cytotoxicity at 70.5 h was -9.38%.

As for `CN(C(=O)c1cccn1C)C1CCC(NC(=O)OC(C)(C)C)CC1` (centres undefined), the cytotoxicity at 70.5 h is -9.69%.

As to `CCOC1CCCN(C(=O)c2sccc2-n2cnnn2)C1` (centres undefined), the cytotoxicity at 70.5 h was -2.74%.

Consider `CCN1CC2(CCC1=O)CCN(Cc1cccc(C#N)c1)CC2`, for which the cytotoxicity at 70.5 h is -4.47%.

For `O=C(N[C@@H]1CN(Cc2ccc(F)cc2)C[C@H]1O)c1cscn1`, the cytotoxicity at 70.5 h was -1.52%.

As to `COCc1cc(CC2(NC3CCCCC3)COC2)no1`, the cytotoxicity at 70.5 h came out at 9.57%.

With `CC(C)CC(=O)N1CC[C@H]2N(C)CC[C@@]2(C(=O)Nc2ccccc2)CC1`, the cytotoxicity at 70.5 h amounted to 36.5%.

As for `COCCCN(CCOC)C(=O)Nc1ccccc1Br`, the cytotoxicity at 70.5 h was -15.2%.

As for `CCC1(CO)CCN(C(=O)c2cc(COc3ccccc3F)[nH]n2)CC1`, the cytotoxicity at 70.5 h turned out to be 15.1%.

Consider `CN1CCC(N(C)C[C@H]2CC[C@@H](Cc3ccc4c(cnn4C)c3)O2)CC1`, for which the cytotoxicity at 70.5 h was -7.57%.

Turning to `COc1ccc(Cl)cc1CN(CC(N)=O)C(C)C`, the cytotoxicity at 70.5 h is -4.98%.

With `COC(=O)c1cccn1C1CCN(CCN2C(=O)CCC2=O)CC1`, the cytotoxicity at 70.5 h was -5.66%.

As to `c1ccc(CN2CCCC(c3nccnc3-n3ccnc3)C2)cc1` (centres undefined), the cytotoxicity at 70.5 h was -17.5%.

With `O=C(c1ccco1)N1CCC2(CC1)C(=O)NCCN2CC1CC1`, the cytotoxicity at 70.5 h was -26.8%.

`CNC(=O)CNC(=O)c1ccc(-c2scnc2C)nc1`: the cytotoxicity at 70.5 h was -0.926%.

For the molecule `CC1CCC(NC(=O)c2nn(C)cc2Br)CC1` (centres undefined), the cytotoxicity at 70.5 h was -7.64%.

Regarding `CCN1CC2(CCC1=O)CCN(c1ccc(C(C)=O)cn1)CC2`, the cytotoxicity at 70.5 h is -3.76%.

For the molecule `CC(C)Oc1cccc(C(O)CNC(=O)Nc2cccs2)c1` (centres undefined), the cytotoxicity at 70.5 h is -4.72%.

With `Cc1nn(C)cc1C(=O)N1CCC(CSc2ccccc2)C1` (centres undefined), the cytotoxicity at 70.5 h is -1.58%.

For the molecule `CC(C)CN(CC(F)(F)F)S(=O)(=O)c1cc(C(N)=O)n(C)c1`, the cytotoxicity at 70.5 h is 1.58%.

Turning to `CCCc1n[nH]cc1C(=O)N1CCCC(c2nccn2CC2CC2)C1` (centres undefined), the cytotoxicity at 70.5 h was -6.16%.

`O=C(c1ccccn1)N1C[C@@H]2CC[C@H](C1)N(C(=O)CCN1CCCC1)C2`: the cytotoxicity at 70.5 h was 38%.

As for `CCN(C(=O)Cn1cc(Cl)cn1)c1ccccc1`, the cytotoxicity at 70.5 h stood at 5.93%.

As for `CC(=O)N(C)CC(=O)NCC1CCN(c2cc(Cl)ccc2C)C1` (centres undefined), the cytotoxicity at 70.5 h was 2.11%.

As to `Cc1cc(CN2C[C@@H]3CCCO[C@@H]3[C@H](N(C)C(C)C)C2)no1`, the cytotoxicity at 70.5 h is -3.76%.

Consider `CS(=O)(=O)c1nccn1Cc1ccc(F)cc1Cl`, for which the cytotoxicity at 70.5 h was -6.78%.

As for `CC(=O)c1cn(CCC(=O)NCCCC(=O)O)c2ccccc12`, the cytotoxicity at 70.5 h is -12.2%.

On to `COc1cc(C)nc(N2CCN(C(=O)c3cc(Cl)c[nH]3)CC2)n1`, for which the cytotoxicity at 70.5 h was -1.56%.

With `O=C(CSC1=NS(=O)(=O)c2cc(Cl)ccc2N1)c1ccccc1`, the cytotoxicity at 70.5 h worked out at 23.9%.

With `CCOCc1nc2c(c(N3CC=CC3)n1)CCN(C1CCOCC1)CC2`, the cytotoxicity at 70.5 h is 0.826%.

As for `O=C(c1ccoc1)N1CCC(NCc2ccccc2Cl)CC1`, the cytotoxicity at 70.5 h is -8.33%.

For `CC(C)C(C)(C#N)NC(=O)Cn1cc(-c2ccccc2)cn1` (centres undefined), the cytotoxicity at 70.5 h was -5.67%.

Regarding `COc1ccc(C(CNC(=O)c2cnc(C)cn2)N2CCOCC2)cc1` (centres undefined), the cytotoxicity at 70.5 h was -3.63%.

Turning to `Cc1n[nH]c(C)c1S(=O)(=O)N1CCC(Oc2ccccc2F)CC1`, the cytotoxicity at 70.5 h was -7.37%.

`CNc1nc(CNC(=O)Nc2cccc(OC)c2)cs1`: the cytotoxicity at 70.5 h is -0.727%.

For the molecule `Cc1cc(OC(F)F)c(C(=O)N2CCC(CN(C)C)CC2)s1`, the cytotoxicity at 70.5 h was -5.68%.

`CCC[C@H]1CN(c2nc(CO)cs2)C[C@@H]1NC(=O)C1(COC)CC1`: the cytotoxicity at 70.5 h worked out at 4.28%.

On to `Cn1cc(C(=O)N2CCCC(c3ccncc3)C2)cn1` (centres undefined), for which the cytotoxicity at 70.5 h was -7.32%.

Take `COc1ccc(-c2noc(-c3ccc(N4CCC[C@H]4CO)nc3)n2)cc1`: the cytotoxicity at 70.5 h is 10.2%.

Regarding `O=C(NCc1ccc(Cl)s1)c1cc(CN2CCCC(O)C2)on1` (centres undefined), the cytotoxicity at 70.5 h stood at 19.4%.

With `O=C(c1cnc(-c2cnccn2)s1)N1CCCC(n2cccn2)C1` (centres undefined), the cytotoxicity at 70.5 h is -6.04%.

Regarding `CN(C)C(=O)N1CCn2nc(CNC(=O)CCC(F)(F)F)cc2C1`, the cytotoxicity at 70.5 h is -3.05%.

Consider `CC(C)N1CCCC(Cc2nccnc2Cl)CC1` (centres undefined), for which the cytotoxicity at 70.5 h was 0.246%.

Consider `Cc1c(C)n(Cc2ccccn2)c2nc3c(c(N)c12)CCCCC3`, for which the cytotoxicity at 70.5 h was determined as 27.5%.

Take `O[C@]12CCNC[C@H]1CN(c1ccnc3ccccc13)CC2`: the cytotoxicity at 70.5 h was 22.4%.

For the molecule `COc1cccc(NC(=O)N(CCO)Cc2ccsc2)c1`, the cytotoxicity at 70.5 h was -3.88%.

For `CC(C)(C)S(=O)(=O)c1ccc(N2CCC(n3cncn3)CC2)cn1`, the cytotoxicity at 70.5 h came out at 14.6%.

Regarding `CCC(=O)CNC(=O)CCn1nc2ccccn2c1=O`, the cytotoxicity at 70.5 h is -1.88%.

In the case of `CCc1cc(N2CCC(Nc3ccc(Cl)cn3)CC2)ncn1`, the cytotoxicity at 70.5 h was 12.5%.

In the case of `CC(C)C(=O)NC1CCCN(C(=O)c2cc(Cl)ccc2O)C1` (centres undefined), the cytotoxicity at 70.5 h amounted to 15.5%.
